In patent publication US11034702B2, “Thienoisoquinolines and their derivatives for the treatment of cancer” (VALORBEC, SOCIÉTÉ EN COMMANDITE, priority 2016, dated 2021):

Key:
HeLa spheroids = assay: HeLa multicellular tumour spheroids; assay type: cell-based, human
Description: FIG. 5A) is a series of images of HeLa multicellular tumor spheroids (spheroids) treated with control (500 nM C87), empty nanoparticles, 500 nM C75 and 250 nM C75-loaded nanoparticles over 3 days. […] The scale bar for all images is 100 μm. FIG. 5B) is a series images of HeLa spheroids after three days of treatment with control (500 nM C87) or 500 nM C75. The spheroids were stained for fluorescein diacetate (to detect live cells) and propidium iodide (to detect dead cells). […] The scale bar for all images is 100 μm. FIG. 5C) is a series of images of HCT116 spheroids treated with control (1 μM C87), 500 nM C75, 1 μM C75 and 500 nM C75-loaded nanoparticles over 5 days. […] The borders of the spheroids treated with 1 μM C75 or with 500 nM C75-loaded nanoparticles became highly irregular, indicative of loss of spheroid integrity. FIG. 5D) is a series images of HCT116 spheroids after six days of treatment with control (1 μM C87) or 1 μM C75. The spheroids were stained for fluorescein diacetate (live cells) and propidium iodide (dead cells). […] FIG. 5E) is a line graph showing the growth in surface area (%) of HCT116 spheroids treated with control (1 μM C87), 500 nM C75 and 1 μM C75 after six days. FIG. 5F) is a series of images of A549 spheroids treated with control (750 nM C87), 500 nM C75, 1 μM C75 and 500 nM C75-loaded nanoparticles over 5 days. […] The scale bar for all images is 100 μm. […]

HCT116 cells = assay: Mitotic spindle phenotype and centrosome fragment distance in HCT116 cells; assay type: cell-based
Description: FIG. 2A) is a line graph showing the percentage of HCT116 (p53−/−) cells, A549 cells, HeLa cells and H1299 cells in mitosis after treatment with various concentrations of C75 for one population doubling time. All of the cell lines show an increase in the proportion of mitotic cells after treatment with 200 nM C75. The bars indicate standard deviation. […] While the mitotic spindles were not dramatically altered by C75 in HFF1 cells, they were monopolar (as shown) or fragmented in the other cell types. […] The mitotic spindles were more strongly fragmented after C75 treatment in these cells vs. the cells in FIG. 2B). […] While mitotic spindles recovered bipolarity after removing nocodazole, they remained multipolar after removing C75. FIG. 2F) is a series of time-lapse images of a live HeLa cell expressing GFP:tubulin after treatment with C75 as shown in 2D) and 2E). The scale bar for all cells is 10 μm. FIG. 2G) is a schematic showing the putative target for C75. Healthy cells have two centrosomes that separate and form a bipolar spindle, while cancer cells have aberrant centrosomes that cluster to form ‘pseudo’ bipolar spindles, and C75 may target this process and their integrity.
FIG. 3A) is a line graph showing the percentage of mitotic HeLa or HFF1 cells treated with a range of paclitaxel (Taxol™; tubulin-targeting drug) concentrations+/−C75 as indicated. The bars indicate standard deviation. FIG. 3B) is a series of bar graphs showing the proportion of HCT116 cells that have monopolar spindles, bipolar spindles with aligned chromosomes, bipolar spindles with misaligned chromosomes and multipolar/fragmented spindles after treatments as shown. Treatments include DMSO (control), varying concentrations of paclitaxel and/or varying concentrations of C75 after 7 hours. While treatment of HCT116 cells with 2.5 nM paclitaxel caused a threshold of mitotic spindle phenotypes, adding increasing concentrations of C75 in combination with 2.5 nM paclitaxel caused the phenotypes to progressively worsen. FIG. 3C) is bar graph showing the average distance between centrosome fragments in HCT116 cells after treatments as shown. While centrosome fragments moved closer together with increased concentrations of paclitaxel, they moved further apart with increased concentrations of C75. […] FIG. 3E) is a line graph showing the percentage of mitotic HeLa or HFF1 cells treated with a range of nocodazole concentrations+/−C75 as indicated. The bars indicate standard deviation. […]
C75 was also tested for efficacy in different cancer cell lines. […] To further assess the role of C75 in affecting centrosomes, HeLa cells were treated with C75 for a short period of time (5 minutes), then C75 was removed and the cells were analyzed for spindle phenotypes (schematic in FIG. 2D). […]

[1] = system: A549 (lung carcinoma) cells; assay: IC50 (viability) in A549 cells; assay type: cell-based; settings: Homo sapiens
Description: 19 variants with different structural modifications have been made. […] In particular, it is shown that C75 causes death in multiple cancer cells with IC50 values in the 100 nM range, including breast cancers (MCF7, BT549), lung cancer (A549), colorectal cancer (HCT116) in addition to HeLa cells (cervical cancer).

SMILES: COc1ccc(S(=O)(=O)N2Cc3ccccc3-c3sc(Br)cc32)cc1 [Compound C75]
- effect on HeLa spheroids (HeLa spheroids; 500 nM C75 or 250 nM C75-loaded nanoparticles, over 3 days): disrupt HeLa spheroids
- live/dead staining of spheroids (fluorescein diacetate / propidium iodide) (HeLa spheroids; HeLa spheroids, 500 nM, three days): majority of HeLa cells were dead
- mitotic spindle phenotype (HCT116 cells; HCT116 (p53-/-), 300 nM, 6-8 hours): most of the spindles were severely fragmented
- effect of C75 on phenotypes caused by paclitaxel (HCT116 cells; HCT116, 2.5 nM paclitaxel + increasing C75, 7 hours): enhances the phenotypes
- change of centrosome fragment distance when paclitaxel was combined with C75 (HCT116 cells; HCT116, paclitaxel + C75): significant increase in fragment distance
- IC50 [1]: 109 nM
